Data taken from patent EP0526502B1, “PHENOLIC AMINE DEPIGMENTING AND ANTIMELANOMA AGENTS” (The Governors of the University of Alberta, priority 1990, dated 1991).

Assays:
B16 melanoma = assay: In vivo growth inhibition of s.c. inoculated B16 melanoma; parameters: species or system C57BL/6J mice; conditions: day 12 or 13
Procedure: The in vivo antimelanoma effect of the compounds were evaluated by percent growth inhibition of inoculated tumour (%g.i.). The percent g.i. was computed from the mean tumour volume at day 12 or 13 of the experiments; i.e., 100 x (1- treated group/control group). […] To further examine whether a minimal dose of N-Ac-4-S-CAP, 200 mg/Kg has an antimelanoma effect, three groups of mice were treated with N-Ac-4-S-CAP. […] One of the advantages of N-Ac-4-S-CAP over 4-S-CAP was that it had much higher LD⁵⁰ (as high as 1400 mg/Kg of body weight, and therefore a greater range of safety).

follicular melanocytes = assay: Depigmentation of new hair after plucking (PTCA/eumelanin content of hair follicles); type: in vivo, C57BL/6J black mice; conditions: for PTCA Content / Depigmentation: 300 mg/kg daily for 14 days, hair harvested day 22; for Depigmentation: 300 mg/kg
Procedure: Breeding pairs of C57BL/6J black mice were purchased from Jackson Laboratory, Bar Harbor, Maine. Female progeny were used in this testing when approximately 8 weeks old and weighing 17 grams.
Black hairs were plucked manually from the back of the mice to initiate new anagen growth and activate follicular melanocytes with increased tyrosinase activity. Thirty mice were randomized into 6 groups of 5 (1 control and 1 for each compound). Starting on day 1, daily for 14 days the agent was injected i.p. or was infiltrated s.c. in an area where hair follicles had been plucked; the dose was 300 mg/kg body weight.
In the same 30 mice, hair follicles were harvested on day 22 (early telogen phase) and their eumelanin content analyzed. Details of the assay, including chemical degration of melanin and high-performance liquid chromatography (HPLC) were as described in Ito et al, "Quantitative Analysis of Eumelanin and Pheomelanin in Hair and Melanosomes" J. Invest. Dermatol 80:268-272, 1983. Briefly, a 10-mg hair sample is homogenized in water at a concentration of 10 mg/ml; the 200-»l homogenate is transferred to a screw-capped test tube, mixed with 1M H₂SO₄ (800 »L) and oxidized with 3% KMnO₄. The product, pyrrole-2,3,5-tricarboxylic acid (PTCA), is analyzed by HPLC with a UVL detector; samples are measured in duplicate. The eumelanin content is expressed as PTCA (ng/mg) against the PCTA content of BALB/c albino mice as control (≦ 10 ng/mg, the background value with our method, in which 1 ng corresponds roughly to a eumelanin content of 50 ng), and the degree of depigmentation is expressed as a percentage: (PTCA content of control sampleminusPTCA content of experimental sample)/(PCTA content of control sample) x 100 [formula] .

[1] = Experiment I, 200 mg/Kg i.p. daily for nine days
[2] = Experiment I, 400 mg/Kg i.p. daily for nine days
[3] = Experiment I, 600 mg/Kg i.p. daily for nine days
[4] = Experiment I, 800 mg/Kg i.p. daily for nine days
[5] = Experiment II, 400 mg/Kg i.p. daily for nine days
[6] = Experiment II, 800 mg/Kg i.p. daily for nine days
[7] = Experiment II, 1200 mg/Kg i.p. daily for nine days

CC(=O)NCCSc1ccc(O)cc1 [N-Ac-4-S-CAP, N-ACETYL-4-S-CYSTEAMINYLPHENOL]
%Gi (B16 melanoma; [1]): 39.8% | Tumour Volume (B16 melanoma; [1]): 313 ± 83 mm^3 | %Gi (B16 melanoma; [2]): 57.3% | Tumour Volume (B16 melanoma; [2]): 222 ± 13 mm^3 | %Gi (B16 melanoma; [3]): 63.18% | Tumour Volume (B16 melanoma; [3]): 192 ± 48 mm^3 | %Gi (B16 melanoma; [4]): 74.4% | Tumour Volume (B16 melanoma; [4]): 133 ± 11 mm^3 | %Gi (B16 melanoma; Experiment II, 200 mg/Kg i.p. daily for nine days): 32.0% | %Gi (B16 melanoma; [5]): 34.0% | Tumour Volume (B16 melanoma; [5]): 359 ± 52 mm^3 | %Gi (B16 melanoma; [6]): 63.4% | Tumour Volume (B16 melanoma; [6]): 199 ± 26 mm^3 | %Gi (B16 melanoma; [7]): 70.7% | Tumour Volume (B16 melanoma; [7]): 159 ± 23 mm^3 | PTCA Content (follicular melanocytes; Route s.c.): 30.8 ± 9.1 ng/mg | Depigmentation (follicular melanocytes; Route s.c.): 97.2% | PTCA Content (follicular melanocytes; Route: i.p.): 26.0 ± 10.3 ng/mg | Depigmentation (follicular melanocytes; Route: i.p.): 97.6% | visible pigmentation of new hair (follicular melanocytes; i.p. or s.c. route, result in words): almost pure white as in albino mice
